Data: patent US5124350A, “Leukotriene B4 antagonists” (G. D. Searle & Co., priority 1990, dated 1992)

Columns and labels:
[1] = test system: Human neutrophils (fMLP chemotaxis); experiment: Modified Boyden Chamber Chemotaxis, fMLP; type: cell-based; settings: relative to the compound of Example 1 (b), defined as 1.0
Excerpt: [The procedure below names another target; the source lists this target under the same test.] (§1) Neutrophils were purified from venous blood of normal human donors using standard techniques of dextran sedimentation, centrifugation on Ficoll-paque® (Pharmacia) or Histopaque® sterile solution (Sigma) and hypotonic lysis of erythrocytes (Boyum, A., Isolation of Leukocytes From Human Blood: Further Observations. Scand. J. Lab. Clin. Invest., 21 (Suppl. 97): 31, 1968). The purity of isolated neutrophils was>95%.
(§2) Human neutrophils were isolated from citrated peripheral blood using standard techniques of dextran sedimentation, followed by centrifugation on Histopaque® sterile solution (Sigma) or Ficoll-paque® (Pharmacia) and hypotonic lysis of erythrocytes. A final cell suspension of 3.4×10^6 neutrophils/ml of HEPES-buffered Hanks' balanced salt solution (HBSS, pH 7.3) was added to the upper well (0.8 ml ) of a modified Boyden chamber (blind well). The lower well (0.2 ml), separated by a polycarbonate membrane (Nucleopore Corp.), contained HBSS or 3×10^-8 M LTB4 in the presence or absence of test compound. […] The number of neutrophils migrating into the lower chamber in the absence of chemoattractant was subtracted from the number of cells migrating in the presence of a chemoattractant. Inhibition of chemotaxis by test compounds was expressed as percent inhibition relative to uninhibited control.
(§3) Data are expressed as potency relative to the compound of Example i(b ), 7-[3,(4-acetyl-3-methoxy-2propylphenoxy)propoxy]-3,4-dihydro-8-propyl-2H-1-benzopyran-2-carboxylic acid, which is disclosed in U.S. Pat. No. 4,889,871.

[2] = target: T1, LTB4 Receptor (Homo sapiens, UniProt Q15722); experiment: LTB4 Receptor Binding Assay ((3H) LTB4, human neutrophils); settings: relative to the compound of Example 1 (b), defined as 1.0
T1 construct: Neutrophils were purified from venous blood of normal human donors; endogenous in cells; host or cells: neutrophils from venous blood of normal human donors
Description: as §1
Neutrophils (4-6×10^6) in 1 ml Hanks' balanced salt solution (HBSS) containing 10 mM HEPES buffer , pH 7.4 and […] nordihydroguaiaretic acid were incubated with 0.6×10^-9 M (^3 H) LTB4 in the presence or absence of test compounds. The incubation was carried out at 0° C. for 45 minutes and terminated by adding 5ml of ice-cold HBSS followed by rapid filtration of the incubation mixture under vacuum through GF/C glass fiber filters. The filters were further washed with 10 ml HBSS and radioactivity was determined. Specific binding was defined as the difference between total binding and nonspecific binding which was not displaced by 10^-7 M unlabeled LTB4. All data refer to specific binding.

[3] = test system: Human neutrophils (LTB4 chemotaxis); experiment: Modified Boyden Chamber Chemotaxis, LTB4; type: cell-based; settings: relative to the compound of Example 1 (b), defined as 1.0; 3×10^-8 M LTB4
Excerpt: as §1, §2, §3

T1 sequence (Q15722 whole entry): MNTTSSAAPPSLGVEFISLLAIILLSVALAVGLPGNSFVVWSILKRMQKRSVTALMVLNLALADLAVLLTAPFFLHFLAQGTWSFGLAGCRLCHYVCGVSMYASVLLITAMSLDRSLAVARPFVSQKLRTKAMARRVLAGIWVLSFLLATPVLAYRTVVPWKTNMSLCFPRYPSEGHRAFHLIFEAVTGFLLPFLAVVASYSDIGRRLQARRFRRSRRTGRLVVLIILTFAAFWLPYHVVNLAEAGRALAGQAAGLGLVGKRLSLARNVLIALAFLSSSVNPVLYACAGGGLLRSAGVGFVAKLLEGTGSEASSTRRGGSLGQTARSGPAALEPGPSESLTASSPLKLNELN

SMILES	Relative Potency, Chemotaxis fMLP [1]	Relative Potency, LTB4 Receptor Binding [2]	Relative Potency, Chemotaxis LTB4 [3]
C=CCc1c(OCCCOc2ccc3c(c2CCC)OC(C(=O)O)CC3)ccc(C(=O)NC)c1OC (stereo not drawn) [Example 26, 3,4-Dihydro-7-[3-[3-methoxy-4-[(methylamino)carbonyl]-2-(2-propenyl)phenoxy]propoxy]-8-propyl 2H-1-benzopyran-2-carboxylic acid]	0.95	2.1	7.6
CCCc1c(OCCCOc2ccc(C(=O)NC)c(OC)c2CC2CC2)ccc2c1OC(CCC(=O)O)CC2 (stereo not drawn) [Example 62, 7-[3-[2-(Cyclopropylmethyl)-3-methoxy-4-[(methylamino)carbonyl]phenoxy]propoxy]-3,4-dihydro-8-propyl-2H-1-benzopyran-2-propanoic acid]	0.69	8.5	17.4
CCCc1c(OCCCOc2ccc(C(=O)NC)c(OC)c2CCC)ccc2c1OC(C(=O)O)CC2 (stereo not drawn) [Example 35, 3,4-Dihydro-7-[3-[3-methoxy-2-propyl-4-[(methylamino)carbonyl]phenoxy]propoxy]-8-propyl-2H-1-benzopyran-2-carboxylic acid]	–	0.81	2.6
CCCc1c(OCCCOc2ccc(C(N)=O)c(OC)c2CCC)cccc1OCC(=O)O [Example 43, [3-[3-[4-(Aminocarbonyl)-3-methoxy-2-propylphenoxy]propoxy]-2-propylphenoxy]acetic acid]	≤ 0.63	0.83	1.1
C=CCc1c(OCCCOc2cccc(OCC(=O)O)c2CCC)ccc(C(N)=O)c1OC [Example 56, [3-[3-[4-(Aminocarbonyl)-3-methoxy-2-(2-propenyl)phenoxy]propoxy]-2-propylphenoxy] acetic acid]	< 0.63	1.0	2.6
C=CCc1c(OCCCOc2ccc3c(c2CCC)OC(CCC(=O)O)CC3)ccc(C(=O)NC)c1OC (stereo not drawn) [Example 9, 3,4-Dihydro-7-[3-[3-methoxy-4-[(methylamino)carbonyl]-2-(2-propenyl)phenoxy]propoxy]8-propyl-2H-1-benzopyran-2-propanoic acid]	0.38	8.9	12.3
CCCc1c(OCCCOc2ccc(C(=O)N3CCCC3)c(OC)c2CCC)cccc1OCC(=O)O [Example 50, [3-[3-[3-Methoxy-2-propyl-4-(1-pyrrolidinylcarbonyl)phenoxy]propoxy]2-propylphenoxy]acetic acid]	< 0.48	0.04	0.05
CCCc1c(OCCCOc2ccc(C(=O)NC)c(OC)c2CCC)ccc2c1OC(CCC(=O)O)CC2 (stereo not drawn) [Example 14, 3,4-Dihydro-7-[3-[3-methoxy-4-[(methylamino)carbonyl]-2-propylphenoxy]propoxy]-8-propyl-2H-1-benzopyran-2-propanoic acid]	0.52	4.0	4.1
CCCc1c(OCCCOc2ccc(C(=O)NC)c(OC)c2CC2CC2)ccc2c1OC(C(=O)O)CC2 (stereo not drawn) [Example 19, 7-[3-[2-(Cyclopropylmethyl)-3-methoxy-4-[(methylamino)carbonyl]phenoxy]propoxy]-3,4-dihydro-8-propyl-2H-1-benzopyran-2-carboxylic acid]	1.57	5.3	16.9
CCCc1c(OCCCOc2ccc(C(=O)NC)c(OC)c2CCC)cccc1OCC(=O)O [Example 46, [3-[3-[3-Methoxy-4-[(methylamino)carbonyl]-2-propylphenoxy]propoxy]-2-propylphenoxy]acetic acid]	≤ 0.048	0.71	0.58
C=CCc1c(OCCCOc2cccc(OCC(=O)O)c2CCC)ccc(C(=O)N2CCCC2)c1OC [Example 59, [3-[3-[3-Methoxy-2-(2-propenyl)-4-(1-pyrrolidinylcarbonyl)phenoxy]propoxy]-2-propylphenoxy]acetic acid]	–	0.04	< 0.9
C=CCc1c(OCCCOc2ccc3c(c2CCC)OC(C(=O)O)CC3)ccc(C(N)=O)c1OC (stereo not drawn) [Example 32, 7-[3-[4-(Aminocarbonyl)-3-methoxy-2-(2-propenyl)phenoxy]propoxy]-3,4-dihydro-8-propyl-2H-1-benzopyran-2-carboxylic acid]	1.5	2.1	4.0
C=CCc1c(OCCCOc2ccc3c(c2CCC)OC(C(=O)O)CC3)ccc(C(=O)N2CCCC2)c1OC (stereo not drawn) [Example 29, 3,4-Dihydro-7-[3-[3-methoxy-2-(2-propenyl)-4-(1-pyrrolidinylcarbonyl)phenoxy]propoxy]-8-propyl-2H-1-benzopyran-2-carboxylic acid]	–	1.0	0.18
